Experiments:
Assay in all cases: relative viability (nuclei count vs DMSO), 5 days (fraction); higher = more cells survive
[1] = compound: CCN1CCC(CC1)N2C=C(N=N2)CNC3=CC4=C(C(=CN=C4C(=C3)Cl)C#N)NC5=CC(=C(C=C5)F)Cl [KIN001-266] + O=C(c1cc(Cc2n[nH]c(=O)c3ccccc23)ccc1F)N1CCN(C(=O)C2CC2)CC1 [Olaparib] (partner 8 µM)
In short: (§1)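 Lung cancer cell lines, seeded in 1536-well plates, were treated the following day by pin tool with a single drug or with five library-drug doses (not always all listed) in √10 steps on top of a fixed anchor-drug dose. Cells were fixed and nuclei stained in one step after 5 days, and nuclei were counted. Relative viability is the nuclei count for treated wells divided by that for vehicle wells, reported as medians of duplicate plates.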

[2] = compound: CCN1CCC(CC1)N2C=C(N=N2)CNC3=CC4=C(C(=CN=C4C(=C3)Cl)C#N)NC5=CC(=C(C=C5)F)Cl [KIN001-266] + NC(=O)Nc1cc(-c2cccc(F)c2)sc1C(=O)N[C@H]1CCCNC1 [AZD7762] (partner 0.2 µM)
In short: as §1

[3] = compound: CCN1CCC(CC1)N2C=C(N=N2)CNC3=CC4=C(C(=CN=C4C(=C3)Cl)C#N)NC5=CC(=C(C=C5)F)Cl [KIN001-266] + CS(=O)(=O)CCNCc1ccc(-c2ccc3ncnc(Nc4ccc(OCc5cccc(F)c5)c(Cl)c4)c3c2)o1 [Lapatinib] (partner 2 µM)
In short: as §1

[4] = compound: CCN1CCC(CC1)N2C=C(N=N2)CNC3=CC4=C(C(=CN=C4C(=C3)Cl)C#N)NC5=CC(=C(C=C5)F)Cl [KIN001-266] + Nc1ncn([C@H]2C[C@H](O)[C@@H](CO)O2)c(=O)n1 [Decitabine] (partner 2 µM)
In short: as §1

Row | Cell Line | relative viability ([1]; first compound 0.08 µM) | relative viability ([1]; first compound 0.253 µM) | relative viability ([1]; first compound 0.8 µM) | relative viability ([1]; first compound 2.53 µM) | relative viability ([1]; first compound 8 µM) | relative viability ([2]; first compound 0.08 µM) | relative viability ([2]; first compound 0.253 µM) | relative viability ([2]; first compound 0.8 µM) | relative viability ([2]; first compound 2.53 µM) | relative viability ([2]; first compound 8 µM) | relative viability ([3]; first compound 0.08 µM) | relative viability ([3]; first compound 0.253 µM) | relative viability ([3]; first compound 0.8 µM) | relative viability ([3]; first compound 2.53 µM) | relative viability ([3]; first compound 8 µM) | relative viability ([4]; first compound 0.08 µM) | relative viability ([4]; first compound 0.253 µM) | relative viability ([4]; first compound 0.8 µM) | relative viability ([4]; first compound 2.53 µM) | relative viability ([4]; first compound 8 µM)
1 | HCC-366 | 0.403 | 0.339 | 0.271 | 0.3 | 0.227 | 0.552 | 0.361 | 0.175 | 0.26 | 0.175 | 0.911 | 1.03 | 1 | 1.05 | 1.02 | 0.359 | 0.362 | 0.221 | 0.346 | 0.317
2 | HCC-827 | 0.577 | 0.602 | 0.557 | 0.585 | 0.528 | 0.28 | 0.224 | 0.131 | 0.215 | 0.196 | 0.2 | 0.18 | – | 0.191 | 0.217 | 0.327 | 0.382 | 0.153 | 0.28 | 0.268
3 | HOP-62 | 0.5 | 0.475 | 0.381 | 0.46 | 0.319 | 0.583 | 0.671 | 1.03 | 0.729 | 0.447 | 0.944 | 0.801 | 1.13 | 0.815 | 1.09 | 0.224 | 0.215 | 0.287 | 0.204 | 0.217
4 | IA-LM | 0.884 | 0.791 | 0.845 | 0.853 | 0.625 | – | – | – | – | – | 0.967 | 0.752 | 0.989 | 0.861 | 0.474 | – | – | – | – | –
5 | LCLC-103H | 0.727 | 0.762 | 0.722 | 0.742 | 0.756 | 0.814 | 0.843 | 0.82 | 0.791 | 0.73 | – | – | – | – | – | 0.702 | 0.742 | 0.636 | 0.689 | 0.706
6 | NCI-H441 | 0.504 | 0.645 | 0.562 | 0.455 | 0.444 | 0.941 | 1.2 | 1.11 | 1.07 | 1.19 | – | – | – | – | – | 0.284 | 0.205 | 0.242 | 0.211 | 0.279
7 | NCI-H520 | 0.339 | 0.299 | 0.374 | 0.267 | 0.239 | – | – | – | – | – | 0.899 | 0.85 | 1.02 | 0.718 | 0.886 | 0.538 | 0.548 | 0.576 | 0.474 | 0.459
8 | NCI-H522 | 0.672 | 0.785 | 0.665 | 0.559 | 0.483 | 0.951 | 0.85 | 0.786 | 0.822 | 0.79 | – | – | – | – | – | 0.651 | 0.609 | 0.777 | 0.702 | 0.678
9 | NCI-H661 | 0.741 | 0.732 | 0.707 | 0.617 | 0.459 | – | – | – | – | – | 0.494 | 0.449 | 0.532 | 0.438 | 0.29 | 0.628 | 0.554 | 0.506 | 0.509 | 0.504
10 | NCI-H1563 | – | – | – | – | – | – | – | – | – | – | 1.05 | 1.1 | 0.968 | 0.922 | 0.835 | – | – | – | – | –
11 | NCI-H1648 | 1 | 0.711 | 0.816 | 0.55 | 0.996 | 0.721 | 0.713 | 0.518 | 0.572 | 0.669 | – | – | – | – | – | 0.487 | 0.497 | 0.501 | 0.507 | 0.517
12 | NCI-H1650 | 0.708 | 0.751 | 0.655 | 0.587 | 0.437 | – | – | – | – | – | 0.881 | 0.873 | 0.826 | 0.641 | 0.42 | 0.396 | 0.43 | 0.426 | 0.544 | 0.388
13 | NCI-H1703 | 0.451 | 0.386 | 0.435 | 0.391 | 0.401 | – | – | – | – | 0.112 | 1.02 | 0.947 | 1.25 | 0.87 | 0.532 | – | – | – | – | –
14 | NCI-H2009 | 0.721 | 0.667 | 0.657 | 0.65 | 0.321 | – | – | – | – | – | 0.981 | 1.07 | 0.905 | 0.927 | 0.645 | 0.394 | 0.367 | 0.437 | 0.357 | 0.391
15 | NCI-H2023 | 0.465 | 0.489 | 0.528 | 0.47 | 0.411 | – | – | – | – | – | 0.774 | 0.971 | 1.09 | 0.855 | 0.34 | 0.21 | 0.217 | 0.217 | 0.216 | 0.289
16 | NCI-H2228 | 0.692 | 0.735 | 0.682 | 0.727 | 0.496 | – | – | – | – | – | 1.06 | 1.04 | 0.883 | 0.834 | 0.882 | – | – | – | – | –
17 | NCI-H2342 | 0.547 | 0.4 | 0.427 | 0.407 | 0.419 | 0.559 | 0.492 | 0.451 | 0.431 | 0.545 | – | – | – | – | – | 0.693 | 0.762 | 0.662 | 0.872 | 0.817
18 | SK-LU-1 | 0.557 | 0.427 | 0.489 | 0.373 | 0.416 | – | – | – | – | – | 0.932 | 0.862 | 0.817 | 0.64 | 0.613 | 0.718 | 0.623 | 0.615 | 0.552 | 0.478
19 | SK-MES-1 | 0.783 | 0.651 | 0.73 | 0.492 | 0.492 | – | – | – | – | – | 0.47 | 0.522 | 0.414 | 0.405 | 0.418 | 0.383 | 0.37 | 0.386 | 0.391 | 0.433
20 | SW 900 | 0.964 | 0.88 | 0.877 | 0.821 | 0.335 | 0.639 | 0.601 | 0.527 | 0.522 | 0.327 | – | – | – | – | – | 0.733 | 0.448 | 0.463 | 0.427 | 0.343
21 | SW 1573 | 0.459 | 0.5 | 0.542 | 0.404 | 0.313 | – | – | – | – | – | 1.09 | 1.13 | 1.11 | 0.88 | 1.04 | 0.504 | 0.447 | 0.699 | 0.427 | 0.429
22 | UMC-11 | 0.351 | 0.515 | 0.398 | 0.31 | 0.319 | – | – | – | – | – | 1.08 | 1.04 | 1.13 | 0.848 | 0.79 | 0.646 | 0.576 | 0.698 | 0.66 | 0.603

Reference: the supplement of paper PMC10307832
